83 compounds from a melting point compilation (Tetko et al.; mined from patent text by program, amines drawn as free bases though some values may be those of a salt) can be followed below.

What is called melting point is the temperature of the solid-liquid transition.

Molecules are shown by their SMILES. Some results are limits rather than exact numbers.

For the compound `Nc1nc2ccccc2c2c1nc(O)n2Cc1ccccc1`, the melting point was > 250 °C.
The compound `CC(C)c1ccc(N(Cc2cnn(Cc3cccs3)c2)C(=O)C2CCCc3c(O)cccc32)cn1` (stereo not drawn) registered a melting point of 125 to 129 °C.
Turning to `Nc1nc2cc(OCc3ccccc3)ccc2c2c1ncn2CCOc1ccccc1`, the melting point lay in the range of 200 to 201 °C.
Next, `CCC(C)C(NC(=O)C(CS)C(F)(F)F)C(=O)O` (stereo not drawn): 140 to 142 °C; `Cc1ccc(S(=O)(=O)NC(=O)C(Cl)Cc2cc(-n3nc(C)n(C(F)F)c3=O)c(F)cc2Cl)cc1` (stereo not drawn): 267 to 269 °C; `COc1ccc(CNc2ncnc3c2ncn3C2OC(CO)C(O)C2O)cc1` (stereo not drawn): 148 °C.
Compound `N#Cc1c(-c2ccccc2)cc(N2CCOCC2)nc1Cl` registered a melting point of 198 to 200 °C.
The compound `O=C(O)CCCCCCCCCCCCCCCCC(=O)ON1C(=O)CCC1=O` displayed a melting point of 120 to 122 °C.
Take `COc1ccc(NC(=O)N2C(=O)CC(c3ccc(OC)c(OC4CCCC4)c3)N2C)cc1` (stereo not drawn): the melting point is 123 to 125 °C.
Next, `O=C(O)Cc1ccc(NC(=O)CCc2cnn(-c3ccccc3)c2-c2ccccc2)cc1`: 199 to 201 °C; `COc1cc(Nc2c(C#N)cnc3cc(OCc4cccs4)c(OC)cc23)c(Cl)cc1Cl`: 194 to 196 °C; `CCCCC(=O)Nc1ccc(Br)c(-n2nc(CC)n(Cc3ccc(-c4ccccc4S(N)(=O)=O)cc3F)c2=O)c1`: 223 to 225 °C.
Consider `COc1cc(-c2ccc(C(F)(F)F)cc2)nc(SC)n1`, for which the melting point was in the range of 82 to 84 °C.
Next, `CCc1[nH]n(-c2c(Cl)cc(Cl)cc2Cl)c2nc(Cc3cccnc3)nc(=O)c1-2`: 257 to 260 °C; `Cn1c(=N)sc2ccccc21`: 122 °C; `CCOC(=O)c1cccc(NC(=O)C=Cc2cc(C(C)C)c(C(C)C)o2)c1`: 160 to 161 °C.
Compound `COc1ccc(-c2ocnc2-c2cc(OC)c(O)c(OC)c2)cc1F` came in with a melting point of 161 to 163 °C.
As to `CC(CC(=O)c1ccc2c(c1)C(C)(C)CCC2(C)C)C(=O)O` (stereo not drawn), the melting point stood at 165 °C.
The compound `CN1C(=O)CC(=O)N(c2ccccc2)c2cc(Cl)ccc21` yielded a melting point of 166 to 168 °C.
As to `O=Cc1cn(Cc2ccc(Cl)cc2)nc1CN1CCC(c2ccccc2)(c2ccccc2)CC1`, the melting point lay within 133 to 134 °C.
With `COc1ccc(N(C(=O)CN2C(=O)C(COCc3ccccc3)C(=O)N(c3ccccc3)c3ccccc32)C(C)C)cc1` (stereo not drawn), the melting point fell in the range of 203 to 204 °C.
Next, `CSc1ccc(C(O)c2occc(=O)c2OCc2ccccc2)cc1` (stereo not drawn): 82 to 82.5 °C; `CN(C1CCN(CCC(F)(F)F)CC1)S(=O)(=O)c1ccc(Nc2nccc(Nc3ccc(F)cc3)n2)cc1`: 195 to 196 °C.
With `CN=C(NC#N)NCCSCc1ncccc1Br` the figure was 114 to 116 °C; with `Cn1cc(-c2cccc(-n3ncc4cc(C(C)(C)C)cc(F)c4c3=O)c2CO)cc(Nc2ccc(C(C)(C)C(=O)O)cn2)c1=O`, 218 to 220 °C.
`COc1cccc(OC)c1-c1cc(C(=O)NC2(C(=O)O)C3CC4CC(C3)CC2C4)nn1-c1ccc(C#N)c2ccccc12` (stereo not drawn) yielded a melting point of 290 °C.
Next, `CC1CCC2(c3c[nH]cn3)Cc3ccccc3C12` (stereo not drawn): 168 to 172 °C; `Cc1c(-c2ccc(Cl)cc2F)sc2nc(N)[nH]c(=O)c12`: 320 to 340 °C; `COc1ccc(-c2nc(Sc3ccc(Cl)c(Cl)c3)n(C3CCCCO3)c2-c2ccc(OC)cc2)cc1` (stereo not drawn): 125 to 127 °C.
`CCC(=NN=C(c1ccc(Cl)cc1)c1ccc(OS(C)(=O)=O)cc1)NN=C(c1ccc(Cl)cc1)c1ccc(OS(C)(=O)=O)cc1` yielded a melting point of 184 to 185 °C.
Next, `CS(=O)(=O)c1ccc(-c2cnn(-c3ccc(F)cc3)c(=O)c2COc2ccc(F)cc2)cc1`: 65 to 80 °C; `OC1(C#Cc2ccc(-c3ccccc3)cc2)CN2CCC1CC2` (stereo not drawn): 217 to 218 °C; `CCCn1nc(-c2cnc3[nH]cc(C(=O)N[C@H](C)C(=O)N4CC(C#N)C4)c3n2)c2ccc(Cl)cc21`: 219 to 221 °C.
In the case of `CSc1ccc(Cl)c(C(=O)NCC23CC4CC(CC(C4)C2)C3)c1`, the melting point lay within 126 to 127 °C.
Consider `CCOC(c1ccccc1)(c1ccccc1)c1ncn(S(=O)(=O)N(C)C)c1C`, for which the melting point is 150 °C.
Take `CC(=O)Nc1ccc([N+](=O)[O-])c(C)c1C(=O)O`: the melting point lay in the range of 190 to 191 °C.
In turn, `CCNC(=S)NS(=O)(=O)N1CCC(CCNC(=O)c2cc(Cl)ccc2OC)CC1` showed a melting point of 138 to 140 °C.
With `CC(C)N1Cc2c(-n3c(=O)cc(C(F)(F)F)[nH]c3=O)ccc(Cl)c2C1=O`, the melting point was > 250 °C.
`CC(C)(C)c1cc(C(=O)Nc2ccccc2C(=O)O)cc(C(C)(C)C)c1O`: the melting point lay in the range of 202 to 203 °C.
For `CCCCN1C(=O)NC(Cc2ccc(C(=O)OC)cc2)C1=O` (stereo not drawn), the melting point came to 144 °C.
`COc1cc(CNc2nc(C)nc(C)c2Cl)ccc1OCc1ccccc1` displayed a melting point of 101 to 105 °C.
With `Cc1[nH]c(C(=O)NCCN2CCCCC2)c(C)c1-c1nc2ccc(C(=O)c3ccccc3)cc2[nH]1` the figure was 230 to 237 °C; with `COc1ccc(C(=O)Nc2nc(C)c(C(=O)NCc3ccccc3)s2)cc1`, 203 to 204 °C.
Take `CCc1nnc(-c2ccc(-c3ccccc3)cc2)n1-c1cccc2cnccc12`: the melting point lay in the range of 228 to 230 °C.
Next, `COc1ccc2[nH]c(S(=O)Cc3nccc(N4CCOCC4)c3F)nc2c1` (stereo not drawn): 142 to 146 °C; `CCn1cc(C(=O)O)c(=O)cc1Cl`: 155 to 157 °C; `CN1C(=O)C(=NC(Cl)=C(Cl)Cl)N(c2ccc(Cl)cc2)C1=O`: 108 to 110 °C.
With `CCCCSc1cc(SCCCC)c2ccc3c(SCCCC)cc(SCCCC)c4ccc1c2c43`, the melting point fell in the range of 91 to 92 °C.
As for `CC1=C(C(=O)c2ccc(Br)cc2)C(=O)C2C(O)=CC=CC2C1=O` (stereo not drawn), the melting point lay in the range of 161 to 162 °C.
Consider `CCS(=O)(=O)CCC(=O)NNC(=O)N1Cc2ccccc2Oc2ccc(C(F)(F)F)cc21`, for which the melting point was in the range of 139 to 145 °C.
`CNc1ncnc2c1ncn2CCCN1CCN(c2ccccc2)CC1` gave a melting point of 162 to 163 °C.
With `CC(C)[C@@H](C(=O)N1C(=O)O[C@@H](c2ccccc2)[C@H]1C)[C@@H](O)[C@@H]1OC(C)(C)N(C(=O)OC(C)(C)C)[C@H]1CC1CCCCC1`, the melting point was 97 °C.
For the compound `CCCCOC(=O)C(N)c1ccc(OCC(O)CNC(C)C)nc1` (stereo not drawn), the melting point lay in the range of 85 to 87 °C.
Consider `CC(C)Nc1nc(Nc2cccc(NS(C)(=O)=O)c2)nc2[nH]cnc12`, for which the melting point lay in the range of 161 to 165 °C.
For the compound `Cn1ncc(C(=O)N2CCCC2)c1C(=O)Nc1ccc2nc(-c3cccnc3)nn2c1`, the melting point came out at 251 °C.
With `CSc1ccc(-c2cc(Br)nn2-c2ccc(F)cc2)cc1`, the melting point was 98 to 99 °C.
Consider `CCSc1nc2nsc(N)c2s1`, for which the melting point was in the range of 131 to 134 °C.
For the compound `CC(C)(C)OC(=O)N1CCC(CN2C(=O)C3(COc4cc5c(cc43)CCO5)c3ccccc32)CC1` (stereo not drawn), the melting point was in the range of 96 to 98 °C.
`Cc1cn2ccc3c(c2n1)NC(c1ccccc1)C(OC(=O)C(C)(C)C)C3=O` (stereo not drawn): the melting point lay in the range of 145 to 147 °C.
Take `Cc1c2sc3ccccc3nc-2c2ccccc2c1=O`: the melting point came to 181 °C.
In turn, `O=C(O)c1ccc(C(=O)OC(c2ccc3c(c2)OCO3)c2ccc3c(c2)OCO3)s1` gave a melting point of 141 to 148 °C.
On to `CCCCCC[C@H](CC(=O)OC(C)(C)C)C(=O)N1C(=O)OC[C@@H]1C(C)C`, for which the melting point lay in the range of 50 to 51 °C.
For the compound `CN(C(=O)C(C)(C)c1cc(C(F)(F)F)cc(C(F)(F)F)c1)c1cnc(NCCO)cc1-c1ccccc1Cl`, the melting point lay within 117 to 118 °C.
As for `Cn1c(-c2ccc(-c3cccnc3)cc2)cnc1[C@H](Cc1ccccn1)N(C=O)c1cc2cc(Br)ccc2o1`, the melting point was 168 to 171 °C.
Compound `Cc1c(C#N)ncn1-c1cccc(Oc2ccccc2)c1` yielded a melting point of 97 to 98 °C.
In turn, `CC1SC(c2cccnc2)N(CC(=O)OC(C)(C)C)C1=O` (stereo not drawn) had a melting point of 108 °C.
Next, `NCC1CN(c2cc3c(cc2F)c(=O)c(C(=O)O)cn3C2CC2)C1`: 205 to 211 °C; `COc1ccc(CC(C#N)=CNc2ccccc2)c2ccccc12`: 188 to 189 °C; `CCOC(=O)CC(=O)c1ccc([N+](=O)[O-])c(C)c1`: 48 to 50 °C.
`O=C1CNc2ncc(I)cc2N1Cc1cc(F)ccc1C(F)(F)F` gave a melting point of 244 to 245 °C.
With `CNc1cc(F)ccc1C(C)=O` the figure was 52 to 53 °C; with `COC(=O)CCCc1cc2nc(Cl)ccc2n1S(=O)(=O)c1cc(Cl)ccc1Cl`, 95 to 105 °C; with `OCCCNc1cc(-c2ccnc(Nc3cccc(OC(F)(F)C(F)F)c3)n2)ccn1`, 141 to 145 °C.
As to `CCCCC1(CCCC)CCc2c(OCc3ccccn3)cccc2C1O` (stereo not drawn), the melting point was in the range of 106 to 107 °C.
For `COCCC(=O)N(Cc1ccc(OC(F)(F)F)cc1)c1cc(Cl)cc(-c2nnn[nH]2)c1`, the melting point fell in the range of 146 to 151 °C.
Next, `C[C@H](NC(=O)c1nc(CCCc2ccccc2)c[nH]1)C(=O)NC(C=O)CC(=O)O` (stereo partly drawn): 94 to 96 °C; `C[C@H](CO)Nc1nc(SCc2ccccc2)nc2[nH]c(=O)[nH]c12`: 284 °C.
Next, `CCOC(=O)c1ccc(N(C)C)nn1`: 112 °C.
With `CC1(C)Cc2c(C(=O)N3CCCC3)sc(Sc3ccccc3)c2-c2oncc21` the figure was 49 to 52 °C.
Compound `CC(=O)C(=Cc1cccc([N+](=O)[O-])c1)P(=O)(OCC(C)(C)C)OCC(C)(C)C` displayed a melting point of 139 to 140 °C.
As for `COc1cc(COc2nn(Cc3ccccc3)cc2C(N)=O)ccc1OCc1nc(-c2ccccc2)oc1C`, the melting point fell in the range of 164 to 165 °C.
`COC=C(C(=O)OC)N(C)c1nc(-c2ccc(Cl)c(Cl)c2)cs1` registered a melting point of 96 to 98 °C.
Compound `COC(=O)c1cc(S(=O)(=O)c2ccc(C)cc2)cc2c1OC(c1ccc(OC)cc1)(c1ccc(OC)cc1)O2` yielded a melting point of 79 to 82 °C.
